Reference: ChEMBL document CHEMBL1144479, “Synthesis and antimicrobial studies on novel chloro-fluorine containing hydroxy pyrazolines” (2007)
Converted amounts (≈) assume the structure as drawn.

Assays:
[1] = tested on: Staphylococcus aureus; assay: microbe, parasite or virus in culture; assay type: functional, ATCC 25923; settings: for MIC: Staphylococcus aureus, ATCC 25923, 24 h; for IZ: test concentration or dose not given here
[2] = tested on: Talaromyces marneffei; assay: Antifungal activity against Penicillium marneffei after 3 to 4 days by serial plate dilution method; assay type: functional; settings: for MIC: Talaromyces marneffei; for IZ: test concentration or dose not given here
[3] = tested on: Aspergillus flavus; assay: Antifungal activity against Aspergillus flavus NCIM no. 524 after 3 to 4 days by serial plate dilution method; assay type: functional; settings: for MIC: Aspergillus flavus; for IZ: test concentration or dose not given here
[4] = tested on: Escherichia coli; assay: microbe, parasite or virus in culture; assay type: functional, ATCC 25922; settings: for MIC: Escherichia coli, ATCC 25922, 24 h; for IZ: test concentration or dose not given here
[5] = tested on: Streptococcus pyogenes; assay: Antibacterial activity against Streptococcus pyogenes after 24 hrs by disc diffusion method; assay type: functional; settings: for MIC: Streptococcus pyogenes, 24 h
[6] = tested on: Pseudomonas aeruginosa; assay: microbe, parasite or virus in culture; assay type: functional, ATCC 27853; settings: for MIC: Pseudomonas aeruginosa, ATCC 27853, 24 h; for IZ: test concentration or dose not given here
[7] = tested on: Klebsiella pneumoniae; assay: Antibacterial activity against Klebsiella pneumoniae after 24 hrs by disc diffusion method; assay type: functional; settings: for MIC: Klebsiella pneumoniae, 24 h; for IZ: test concentration or dose not given here
[8] = tested on: Aspergillus fumigatus; assay: Antifungal activity against Aspergillus fumigatus NCIM no. 902 after 3 to 4 days by serial plate dilution method; assay type: functional; settings: for MIC: Aspergillus fumigatus; for IZ: test concentration or dose not given here
[9] = tested on: Trichophyton benhamiae; assay: Antifungal activity against Trichophyton mentagrophytes after 3 to 4 days by serial plate dilution method; assay type: functional, Arthroderma benhamiae; settings: for MIC: Trichophyton benhamiae; for IZ: test concentration or dose not given here
[10] = tested on: Candida albicans; assay: Antifungal activity against Candida albicans NCIM no. 300 after 3 to 4 days by serial plate dilution method; assay type: functional; settings: for MIC: Candida albicans

SMILES	MIC [1] [µg/mL]	MIC [2] [µg/mL]	inhibition zone (IZ) [3] [mm]	MIC [3] [µg/mL]	inhibition zone (IZ) [4] [mm]	MIC [4] [µg/mL]	MIC [5] [µg/mL]	inhibition zone (IZ) [6] [mm]	MIC [6] [µg/mL]	MIC [7] [µg/mL]	MIC [8] [µg/mL]	inhibition zone (IZ) [9] [mm]	MIC [9] [µg/mL]	MIC [10] [µg/mL]	inhibition zone (IZ) [1] [mm]	inhibition zone (IZ) [2] [mm]	inhibition zone (IZ) [5] [mm]	inhibition zone (IZ) [7] [mm]	inhibition zone (IZ) [8] [mm]	inhibition zone (IZ) [10] [mm]
COc1ccc(C2=NN(C(=O)COc3ccc(C)cc3)C(O)(c3cc(F)c(Cl)cc3Cl)C2)cc1OC (stereo not given)	> 100	> 100	10	25 (≈ 46.9 µM)	16	12.5 (≈ 23.4 µM)	> 100	23	6.25 (≈ 11.7 µM)	> 100	> 100	23	6.25 (≈ 11.7 µM)	> 100						
O=C(COc1ccc(Cl)cc1Cl)N1N=C(c2ccc(Cl)cc2Cl)CC1(O)c1cc(F)c(Cl)cc1Cl (stereo not given)	> 100	> 100	12	25 (≈ 41.9 µM)	17	12.5 (≈ 20.9 µM)	> 100	10	25 (≈ 41.9 µM)	> 100	> 100	10	25 (≈ 41.9 µM)	> 100						
Cc1ccc(OCC(=O)N2N=C(c3ccccc3)CC2(O)c2cc(F)c(Cl)cc2Cl)cc1 (stereo not given)	6.25 (≈ 13.2 µM)	12.5 (≈ 26.4 µM)	11	25 (≈ 52.8 µM)	15	12.5 (≈ 26.4 µM)	12.5 (≈ 26.4 µM)	18	6.25 (≈ 13.2 µM)	6.25 (≈ 13.2 µM)	12.5 (≈ 26.4 µM)	10	25 (≈ 52.8 µM)	12.5 (≈ 26.4 µM)	17	12	17	18	11	15
O=C(COc1ccc(Cl)cc1)N1N=C(c2ccc(Cl)cc2)CC1(O)c1cc(F)c(Cl)cc1Cl (stereo not given)	6.25 (≈ 11.8 µM)	6.25 (≈ 11.8 µM)	16	12.5 (≈ 23.7 µM)	18	12.5 (≈ 23.7 µM)	12.5 (≈ 23.7 µM)	21	6.25 (≈ 11.8 µM)	6.25 (≈ 11.8 µM)	6.25 (≈ 11.8 µM)	19	6.25 (≈ 11.8 µM)	12.5 (≈ 23.7 µM)	18	18	20	19	18	20
COc1ccc(C2=NN(C(=O)COc3ccc(Cl)cc3Cl)C(O)(c3cc(F)c(Cl)cc3Cl)C2)cc1 (stereo not given)	6.25 (≈ 11.2 µM)	6.25 (≈ 11.2 µM)	16	12.5 (≈ 22.4 µM)	16	12.5 (≈ 22.4 µM)	12.5 (≈ 22.4 µM)	21	6.25 (≈ 11.2 µM)	12.5 (≈ 22.4 µM)	6.25 (≈ 11.2 µM)	18	6.25 (≈ 11.2 µM)	17 (≈ 30.5 µM)	16	20	19	16	19	12.5
O=C(O)c1cn(C2CC2)c2cc(N3CCNCC3)c(F)cc2c1=O [CIPROFLOXACIN]					18	12.5 (≈ 37.7 µM)	12.5 (≈ 37.7 µM)	25		6.25 (≈ 18.9 µM)					19		20	20		
COc1ccc(C2=NN(C(=O)COc3ccc(C)cc3)C(O)(c3cc(F)c(Cl)cc3Cl)C2)cc1 (stereo not given)	> 100	12.5 (≈ 24.8 µM)		> 100		> 100	> 100	10	25 (≈ 49.7 µM)	> 100	12.5 (≈ 24.8 µM)	10	25 (≈ 49.7 µM)	> 100		12			12	
OC(Cn1cncn1)(Cn1cncn1)c1ccc(F)cc1F [FLUCONAZOLE]		6.25 (≈ 20.4 µM)	18	12.5 (≈ 40.8 µM)							6.25 (≈ 20.4 µM)	20	6.25 (≈ 20.4 µM)	6.25 (≈ 20.4 µM)		21			22	20
O=C(COc1ccc(Cl)cc1)N1N=C(c2ccccc2)CC1(O)c1cc(F)c(Cl)cc1Cl (stereo not given)	12.5 (≈ 25.3 µM)	25 (≈ 50.6 µM)	9	25 (≈ 50.6 µM)		> 100	> 100		> 100	25 (≈ 50.6 µM)	12.5 (≈ 25.3 µM)	7	25 (≈ 50.6 µM)	> 100	14	10		10	14	
O=C(COc1ccc(Cl)cc1)N1N=C(c2ccc(Cl)cc2Cl)CC1(O)c1cc(F)c(Cl)cc1Cl (stereo not given)	> 100	25 (≈ 44.4 µM)		> 100		> 100	> 100		> 100	> 100	> 100			> 100		10				
COc1ccc(C2=NN(C(=O)COc3ccc(Cl)cc3)C(O)(c3cc(F)c(Cl)cc3Cl)C2)cc1 (stereo not given)	6.25 (≈ 11.9 µM)	6.25 (≈ 11.9 µM)	18	12.5 (≈ 23.9 µM)	18	12.5 (≈ 23.9 µM)	12.5 (≈ 23.9 µM)	22	6.25 (≈ 11.9 µM)	6.25 (≈ 11.9 µM)	6.25 (≈ 11.9 µM)	19	6.25 (≈ 11.9 µM)	6.25 (≈ 11.9 µM)	19	20	18	19	21	19
COc1ccc(C2=NN(C(=O)COc3ccc(Cl)cc3)C(O)(c3cc(F)c(Cl)cc3Cl)C2)cc1OC (stereo not given)	> 100	> 100	9	25 (≈ 45.1 µM)	8	25 (≈ 45.1 µM)	25 (≈ 45.1 µM)		> 100	> 100	> 100		> 100	25 (≈ 45.1 µM)			10			10
O=C(COc1ccc(Cl)cc1Cl)N1N=C(c2ccccc2)CC1(O)c1cc(F)c(Cl)cc1Cl (stereo not given)	6.25 (≈ 11.8 µM)	6.25 (≈ 11.8 µM)	15	12.5 (≈ 23.7 µM)	17	12.5 (≈ 23.7 µM)	12.5 (≈ 23.7 µM)	19	6.25 (≈ 11.8 µM)	6.25 (≈ 11.8 µM)	12.5 (≈ 23.7 µM)	11	25 (≈ 47.3 µM)	25 (≈ 47.3 µM)	15	15	15	16	13	10
